Reference: patent publication US20020137929A1, “1 - (3-heterocyclylphenyl) isothiourea, -isourea, -guanidine and -amidine herbicidal agents” (Intellectual Property Department, BASF Aktiengesellschaft, priority 1998, published 2002)

How the values were obtained:
[1] = system: IPOHE (Morningglory, Ivyleaf); experiment: Postemergence herbicidal evaluation; type: in vivo, Ipomoea hederacea; details: postemergence
How it was run: (§1)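 Each compound, dispersed in an acetone/water mix (50/50) carrying 0.5% TWEEN 20, is nozzle-sprayed at 40 psi on approximately two-week-old seedlings at about 0.0156–0.500 kg/ha. Plants are assessed 4–5 weeks afterward on a 0–9 scale relative to control; duplicate tests are averaged.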

[2] = system: ECHORC (Watergrass (Calif.)); experiment: Postemergence weed control under flooded paddy conditions; type: in vivo, Echinochloa oryzoides; details: postemergence weeds, 3-4 weeks after treatment
How it was run: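 Herbicidal effect is judged by eye on a 0–9 scale versus control, 3–4 weeks after dosing. Dosing is into flood water kept 1.5–3 cm over the soil, at about 0.0313–0.500 kg/ha in aqueous/acetone 50/50 v/v, on 3–5 cm weeds and 1.5–2.5-leaf rice seedlings.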

ECHCG (Barnyardgrass) = experiment: Preemergence herbicidal evaluation; type: in vivo, Echinochloa crus-galli; details: rated 4-5 weeks after treatment
How it was run: (§2)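 Sown cups got a single aqueous acetone spray of test compound (roughly 0.0156–0.500 kg/ha) before seedlings emerged. Evaluation, 4–5 weeks on, used a 0–9 visual scale covering plant stand, vigor, size, malformation, chlorosis and general appearance compared with controls.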

[3] = system: GLXMAW (Soybean, Williams); experiment: Preemergence herbicidal evaluation; type: in vivo, Glycine max, (L.) Merr. cv Williams; details: rated 4-5 weeks after treatment
How it was run: as §2

SETVI (Foxtail, Green) = experiment: Preemergence herbicidal evaluation; type: in vivo, Setaria viridis; details: rated 4-5 weeks after treatment
How it was run: as §2

ZEAMX (Corn, Field) = experiment: Postemergence herbicidal evaluation; type: in vivo, Zea mays; details: postemergence
How it was run: as §1

CYPSE (Flatsedge) = experiment: Preemergence weed control under flooded paddy conditions; type: in vivo, Cyperus serotinus; details: rated 3-4 weeks after treatment
How it was run: (§3)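 Greenhouse paddy assay. Acetone/water (50/50 v/v) solutions dosed into flood water, equivalent to about 0.0313 to 0.500 kg/ha active ingredient, over seeds planted 0.5 cm deep in silt loam. Score: 0-9 visual, based on stand, vigor, malformation, size and chlorosis, 3 to 4 weeks after treatment.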

GALAP (Galium) = experiment: Preemergence herbicidal evaluation; type: in vivo, Galium aparine; details: rated 4-5 weeks after treatment
How it was run: as §2

AMBEL (Ragweed, Common) [4] = experiment: Preemergence herbicidal evaluation; type: in vivo, Ambrosia artemisifolia; details: rated 4-5 weeks after treatment
How it was run: as §2

AMBEL (Ragweed, Common) [5] = experiment: Postemergence herbicidal evaluation; type: in vivo, Ambrosia artemisifolia; details: postemergence
How it was run: as §1

ABUTH (Velvetleaf) = experiment: Preemergence herbicidal evaluation; type: in vivo, Abutilon theophrasti; details: rated 4-5 weeks after treatment
How it was run: as §2

[6] = system: GLXMAW (Soybean, Williams); experiment: Postemergence herbicidal evaluation; type: in vivo, Glycine max, (L.) Merr. cv Williams; details: postemergence
How it was run: as §1

[7] = system: SAGPY (Arrowhead (Pygmaea)); experiment: Preemergence weed control under flooded paddy conditions; type: in vivo, Sagittaria pygmaea; details: rated 3-4 weeks after treatment
How it was run: as §3

CASOB (Sicklepod) = experiment: Preemergence herbicidal evaluation; type: in vivo, Cassia obtusifolia; details: rated 4-5 weeks after treatment
How it was run: as §2

COC(=O)CN1C(=O)CSC1=Nc1cc(-n2c(=O)cc(C(F)(F)F)n(C)c2=O)c(F)cc1Cl [Compound 17, Methyl 2-{{2-chloro-5-[3,6-dihydro-3-methyl-2,6-dioxo-4-(trifluoromethyl)-1(2H)-pyrimidinyl]-4-fluorophenyl}imino}-4-oxo-3-thiazolidineacetate]
IPOHE herbicidal rating ([1]; rate 0.0156 kg/ha): 7.0
IPOHE herbicidal rating ([1]; rate 0.0313 kg/ha): 8.5
IPOHE herbicidal rating ([1]; rate 0.0625 kg/ha): 9.0
IPOHE herbicidal rating ([1]; rate 0.1250 kg/ha): 9.0
Herbicidal rating ECHORC ([2]; rate 0.0313 kg/ha): 4.0
Herbicidal rating ECHORC ([2]; rate 0.0625 kg/ha): 9.0
Herbicidal rating ECHORC ([2]; rate 0.1250 kg/ha): 9.0
Herbicidal rating ECHORC ([2]; rate 0.2500 kg/ha): 9.0
ECHCG preemergence herbicidal rating (ECHCG (Barnyardgrass); rate 0.0156 kg/ha): 0.5
ECHCG preemergence herbicidal rating (ECHCG (Barnyardgrass); rate 0.0313 kg/ha): 0.7
ECHCG preemergence herbicidal rating (ECHCG (Barnyardgrass); rate 0.0625 kg/ha): 1.0
ECHCG preemergence herbicidal rating (ECHCG (Barnyardgrass); rate 0.1250 kg/ha): 0.7
ECHCG preemergence herbicidal rating (ECHCG (Barnyardgrass); rate 0.2500 kg/ha): 4.3
ECHCG preemergence herbicidal rating (ECHCG (Barnyardgrass); rate 0.5000 kg/ha): 9.0
GLXMAW preemergence herbicidal rating ([3]; rate 0.0156 kg/ha): 0.0
GLXMAW preemergence herbicidal rating ([3]; rate 0.0313 kg/ha): 0.0
GLXMAW preemergence herbicidal rating ([3]; rate 0.0625 kg/ha): 0.3
GLXMAW preemergence herbicidal rating ([3]; rate 0.1250 kg/ha): 0.3
GLXMAW preemergence herbicidal rating ([3]; rate 0.2500 kg/ha): 3.3
GLXMAW preemergence herbicidal rating ([3]; rate 0.5000 kg/ha): 6.5
SETVI preemergence herbicidal rating (SETVI (Foxtail, Green); rate 0.0156 kg/ha): 0.5
SETVI preemergence herbicidal rating (SETVI (Foxtail, Green); rate 0.0313 kg/ha): 1.3
SETVI preemergence herbicidal rating (SETVI (Foxtail, Green); rate 0.0625 kg/ha): 2.3
SETVI preemergence herbicidal rating (SETVI (Foxtail, Green); rate 0.1250 kg/ha): 6.7
SETVI preemergence herbicidal rating (SETVI (Foxtail, Green); rate 0.2500 kg/ha): 9.0
SETVI preemergence herbicidal rating (SETVI (Foxtail, Green); rate 0.5000 kg/ha): 9.0
ZEAMX herbicidal rating (ZEAMX (Corn, Field); rate 0.0156 kg/ha): 7.0
ZEAMX herbicidal rating (ZEAMX (Corn, Field); rate 0.0313 kg/ha): 7.3
ZEAMX herbicidal rating (ZEAMX (Corn, Field); rate 0.0625 kg/ha): 7.8
ZEAMX herbicidal rating (ZEAMX (Corn, Field); rate 0.1250 kg/ha): 7.8
Herbicidal rating CYPSE (CYPSE (Flatsedge); 0.0313 kg/ha): 9.0
Herbicidal rating CYPSE (CYPSE (Flatsedge); 0.0625 kg/ha): 9.0
Herbicidal rating CYPSE (CYPSE (Flatsedge); 0.1250 kg/ha): 9.0
Herbicidal rating CYPSE (CYPSE (Flatsedge); 0.2500 kg/ha): 9.0
GALAP preemergence herbicidal rating (GALAP (Galium); rate 0.0156 kg/ha): 0.0
GALAP preemergence herbicidal rating (GALAP (Galium); rate 0.0313 kg/ha): 0.0
GALAP preemergence herbicidal rating (GALAP (Galium); rate 0.0625 kg/ha): 0.0
GALAP preemergence herbicidal rating (GALAP (Galium); rate 0.1250 kg/ha): 1.0
GALAP preemergence herbicidal rating (GALAP (Galium); rate 0.2500 kg/ha): 9.0
GALAP preemergence herbicidal rating (GALAP (Galium); rate 0.5000 kg/ha): 9.0
AMBEL preemergence herbicidal rating (AMBEL (Ragweed, Common) [4]; rate 0.0156 kg/ha): 0.0
AMBEL preemergence herbicidal rating (AMBEL (Ragweed, Common) [4]; rate 0.0313 kg/ha): 0.7
AMBEL preemergence herbicidal rating (AMBEL (Ragweed, Common) [4]; rate 0.0625 kg/ha): 1.7
AMBEL preemergence herbicidal rating (AMBEL (Ragweed, Common) [4]; rate 0.1250 kg/ha): 4.3
AMBEL preemergence herbicidal rating (AMBEL (Ragweed, Common) [4]; rate 0.2500 kg/ha): 6.7
AMBEL preemergence herbicidal rating (AMBEL (Ragweed, Common) [4]; rate 0.5000 kg/ha): 9.0
AMBEL herbicidal rating (AMBEL (Ragweed, Common) [5]; rate 0.0156 kg/ha): 3.0
AMBEL herbicidal rating (AMBEL (Ragweed, Common) [5]; rate 0.0313 kg/ha): 6.0
AMBEL herbicidal rating (AMBEL (Ragweed, Common) [5]; rate 0.0625 kg/ha): 6.0
AMBEL herbicidal rating (AMBEL (Ragweed, Common) [5]; rate 0.1250 kg/ha): 9.0
ABUTH preemergence herbicidal rating (ABUTH (Velvetleaf); rate 0.0156 kg/ha): 0.0
ABUTH preemergence herbicidal rating (ABUTH (Velvetleaf); rate 0.0313 kg/ha): 4.0
ABUTH preemergence herbicidal rating (ABUTH (Velvetleaf); rate 0.0625 kg/ha): 9.0
ABUTH preemergence herbicidal rating (ABUTH (Velvetleaf); rate 0.1250 kg/ha): 9.0
ABUTH preemergence herbicidal rating (ABUTH (Velvetleaf); rate 0.2500 kg/ha): 9.0
ABUTH preemergence herbicidal rating (ABUTH (Velvetleaf); rate 0.5000 kg/ha): 9.0
GLXMAW herbicidal rating ([6]; rate 0.0156 kg/ha): 4.3
GLXMAW herbicidal rating ([6]; rate 0.0313 kg/ha): 5.5
GLXMAW herbicidal rating ([6]; rate 0.0625 kg/ha): 5.8
GLXMAW herbicidal rating ([6]; rate 0.1250 kg/ha): 7.5
Herbicidal rating SAGPY ([7]; 0.0313 kg/ha): 0.0
Herbicidal rating SAGPY ([7]; 0.0625 kg/ha): 0.0
Herbicidal rating SAGPY ([7]; 0.1250 kg/ha): 4.0
Herbicidal rating SAGPY ([7]; 0.2500 kg/ha): 4.0
CASOB preemergence herbicidal rating (CASOB (Sicklepod); rate 0.0156 kg/ha): 0.0
CASOB preemergence herbicidal rating (CASOB (Sicklepod); rate 0.0313 kg/ha): 0.7
CASOB preemergence herbicidal rating (CASOB (Sicklepod); rate 0.0625 kg/ha): 0.7
CASOB preemergence herbicidal rating (CASOB (Sicklepod); rate 0.1250 kg/ha): 0.0
CASOB preemergence herbicidal rating (CASOB (Sicklepod); rate 0.2500 kg/ha): 3.7
CASOB preemergence herbicidal rating (CASOB (Sicklepod); rate 0.5000 kg/ha): 7.0
